# Assay results from PMC467089, “Click estradiol dimers with novel aromatic bridging units: synthesis and anticancer evaluation” (Journal of Enzyme Inhibition and Medicinal Chemistry, 2024).
# How the values were obtained:
# HUVEC cells = assay: Endothelial cell tube formation angiogenesis assay; assay type: cell-based, human; details: 60 nM, 24 h, Matrigel
# Experimental: The experiment was performed in 96-well plates pre-coated with 50 μL of growth factor reduced basement membrane matrix Matrigel (Corning, Corning, NY). The coating was set by incubating the plates for 1 h at 37 °C. Subsequently, HUVEC cells were seeded at a density of 15 000 cells per well, and dissolved test substances were added to this layer in a total volume of 100 μL. The assay plates were then incubated for 24 h to facilitate endothelial tube formation. After this incubation, the cells were stained with Hoechst 33342 (Thermo Fisher Scientific, Waltham, MA) to a final concentration of 10 μM and calcein AM (Invitrogen, Carlsbad, CA) to a final concentration of 2 µg/mL for 30 min, followed by visualisation in DIC and fluorescent modes using a Zeiss fluorescent microscope (Oberkochen, Germany).
# U2OS (osteosarcoma) = assay: MTS cytotoxicity assay, U2OS; assay type: cell-based, human; details: Homo sapiens, U2OS, 72 h, read-out: IC50 cytotoxic activity U2OS
# In short: (§1)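 Cells kept in recommended medium with 10% foetal calf serum and penicillin/streptomycin at 37 °C, 5% CO2, seeded overnight, then exposed to fourfold serial DMSO dilutions of compound for 72 h. Viability was read with MTS reagent; technical duplicates, three biological replicates.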
# [1] = tested on: A549 (lung adenocarcinoma); assay: MTS cytotoxicity assay, A549; assay type: cell-based, human; details: Homo sapiens, A549, 72 h, read-out: IC50 cytotoxic activity A549
# In short: as §1
# [2] = MTS cytotoxicity assay, BJ; assay type: cell-based; details: human
# In short: as §1
# U2OS cells = assay: Immunofluorescence of microtubules / mitotic spindle; assay type: cell-based, human; details: 1 µM, 24-h incubation
# Source text: In addition, the presence of aster-like tubulin structures indicated the failure in microtubule elongation (Figure 4, ED5). […] The observed intracellular effects of ED3 and ED5 are consistent with data from in vitro assembly assays and cell cycle analyses, thereby strongly supporting the proposed antimitotic mechanisms of these EDs. […] Importantly, cytotoxic IC50 values may vary depending on the duration of exposure to the drug. A more extended exposure could lead to a decrease in the IC50 value, and vice versa. This temporal factor could also contribute to the observed differential sensitivity among the cell lines. The detailed mechanism and the extent to which these cellular and molecular dynamics (MD) contribute to the observed phenomenon might necessitate further investigation and experimentation.
# U2OS cells, cultivated on coverslips, underwent a PBS wash and were then fixed in a solution of 3% paraformaldehyde in a buffer containing 10 mM MES, 150 mM NaCl, 5 mM EGTA, 5 mM MgCl2, 5 mM glucose, adjusted to a pH of 6.1. The nuclei were made visible using Hoechst 33342. Subsequently, a 60-min blocking step with 5% goat serum in PBS (SpinChem, Seattle, WA) was followed by a 60-min incubation with α-tubulin (DM1A) mouse monoclonal antibody (Cell Signaling, Danvers, MA) in PBS supplemented with 1% BSA and 0.3% Triton X-100. Visualisation was achieved using Alexa Fluor-488 conjugated anti-mouse antibodies (Life Technologies, Carlsbad, CA). Between each step, the samples underwent a series of three 5-min washes with PBS. Finally, the samples were mounted using Vectashield Mounting Medium with DAPI and imaged utilising a Zeiss spinning disk confocal microscope equipped with CSU-X1 unit (Yokogawa, Musashino, Japan)[10].
# [3] = tested on: CEM-DNR (daunorubicin resistant variant of CCRF-CEM); assay: MTS cytotoxicity assay, CEM-DNR; assay type: cell-based, human; details: Homo sapiens, CEM-DNR, 72 h, read-out: IC50 cytotoxic activity CEM-DNR
# In short: as §1
# [4] = tested on: K562-TAX (paclitaxel-resistant variant of K562); assay: MTS cytotoxicity assay, K562-TAX; assay type: cell-based, human; details: Homo sapiens, K562-Tax, 72 h, read-out: IC50 cytotoxic activity K562-TAX
# In short: as §1
# [5] = MTS cytotoxicity assay, MRC-5; assay type: cell-based; details: human
# In short: (§2)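 Culture medium carried 10% foetal calf serum plus antibiotics. Treatment lasted 72 h with a fourfold dilution series, followed by MTS detection, in technical duplicate across three biological replicates.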
# [6] = MTS cytotoxicity assay, HUVEC; assay type: cell-based; details: human
# In short: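 Cells seeded overnight, then exposed to fourfold serial dilutions of compounds (DMSO) for 72 h at 37 °C, 5% CO2; viability read by MTS reagent. Technical duplicates, three biological replicates. HCT116p53−/− is the p53-null variant.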
# porcine brain tubulin [7] = target: T1, porcine brain tubulin (Sus scrofa, UniProt P02550+P02554); set-up: method as in PMID 36592487; details: dimers of the previous study; ref [10]; cited from earlier work
# T1 construct: Polymerisation of porcine brain tubulin (>99% purity) was measured; purchased Cytoskeleton, Denver, CO; host or cells: porcine brain (tissue-purified)
# T1 sequence (P02550 whole entry): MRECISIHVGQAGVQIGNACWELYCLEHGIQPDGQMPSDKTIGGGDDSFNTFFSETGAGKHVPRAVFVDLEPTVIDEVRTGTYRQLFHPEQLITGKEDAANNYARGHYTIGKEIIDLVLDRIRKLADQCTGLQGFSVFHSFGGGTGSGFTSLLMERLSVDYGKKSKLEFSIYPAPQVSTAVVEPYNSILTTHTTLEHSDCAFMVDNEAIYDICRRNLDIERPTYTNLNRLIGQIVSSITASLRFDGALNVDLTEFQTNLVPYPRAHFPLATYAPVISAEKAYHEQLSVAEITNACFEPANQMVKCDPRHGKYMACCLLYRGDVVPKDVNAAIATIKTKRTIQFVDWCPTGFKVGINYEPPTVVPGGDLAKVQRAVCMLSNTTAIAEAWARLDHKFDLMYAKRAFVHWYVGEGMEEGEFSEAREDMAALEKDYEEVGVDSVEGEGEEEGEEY
# T1 sequence (P02554 whole entry): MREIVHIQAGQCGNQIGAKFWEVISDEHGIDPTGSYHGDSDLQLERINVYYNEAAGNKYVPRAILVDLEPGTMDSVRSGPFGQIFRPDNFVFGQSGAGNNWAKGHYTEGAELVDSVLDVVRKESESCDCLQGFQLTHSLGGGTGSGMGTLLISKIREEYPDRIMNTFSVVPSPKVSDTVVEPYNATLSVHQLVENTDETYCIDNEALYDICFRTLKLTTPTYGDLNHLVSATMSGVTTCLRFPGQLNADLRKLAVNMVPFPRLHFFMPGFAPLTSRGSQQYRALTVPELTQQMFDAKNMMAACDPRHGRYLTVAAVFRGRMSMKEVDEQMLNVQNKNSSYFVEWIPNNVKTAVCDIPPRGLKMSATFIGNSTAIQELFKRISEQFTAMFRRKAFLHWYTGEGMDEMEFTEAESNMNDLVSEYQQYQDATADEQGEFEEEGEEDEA
# [8] = tested on: HCT116 (colorectal adenocarcinoma); assay: MTS cytotoxicity assay, HCT116; assay type: cell-based; details: Homo sapiens, HCT-116, 72 h, read-out: IC50 cytotoxic activity HCT116
# In short: as §2
# [9] = tested on: HCT116p53−/− (p53 gene null variant of HCT116); assay: MTS cytotoxicity assay, HCT116p53−/−; assay type: cell-based; details: Homo sapiens, HCT-116, 72 h, read-out: IC50 cytotoxic activity HCT116p53-
# In short: as §2
# [10] = tested on: CCRF-CEM (childhood T-cell acute lymphoblastic leukaemia); assay: MTS cytotoxicity assay, CCRF-CEM; assay type: cell-based; details: Homo sapiens, 72 h, read-out: IC50 cytotoxic activity CCRF-CEM
# In short: as §2
# CCRF-CEM lymphoblasts [11] = assay: Cell cycle analysis by flow cytometry (propidium iodide); assay type: cell-based, human
# In short: (§3)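 CCRF-CEM cells treated 24 h, then fixed in cold 70% ethanol, permeabilised with 0.25% Triton X-100 and stained with anti-phospho-histone H3 (Ser10). After 50 μg/mL RNase and propidium iodide, analysed by flow cytometry at 488 nm; sub-G1 events counted as non-viable with fragmented DNA.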
# porcine brain tubulin [12] = target: T1, porcine brain tubulin; assay: Tubulin polymerisation assay; assay type: biochemical; details: 10 μmol/L, Vmax relative to DMSO
# In short: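 Test compounds (10 μmol/L) or DMSO vehicle added to >99% pure porcine brain tubulin. Polymerisation read at 37 °C on a plate reader, and Vmax taken from each curve.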
# CCRF-CEM lymphoblasts [13] = assay: BrDU incorporation analysis (DNA synthesis); assay type: cell-based, human
# In short: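 CCRF-CEM cells exposed to compounds for 24 h, pulse-labelled 30 min before harvest with 10 μM BrDU, ethanol-fixed, HCl-denatured, stained with anti-BrdU/FITC plus propidium iodide and RNase. Flow cytometry (488 nm) gives the percentage of BrDU-positive cells.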
# [14] = tested on: K562 (chronic myelogenous leukaemia); assay: MTS cytotoxicity assay, K562; assay type: cell-based; details: Homo sapiens, K562, 72 h, read-out: IC50 cytotoxic activity K562
# In short: as §2
# CCRF-CEM lymphoblasts [15] = assay: BrU incorporation analysis (RNA synthesis); assay type: cell-based, human
# In short: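 CCRF-CEM cells were treated with compounds for 24 h, then pulsed with 1 mM BrU for 30 min and fixed in 1% paraformaldehyde/0.05% NP-40. BrU was detected with a cross-reacting anti-BrdU antibody and FITC secondary, with propidium iodide/RNase counterstain; value is percentage of BrU-positive cells by flow cytometry.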
# CCRF-CEM lymphoblasts [16] = assay: Phospho-histone H3 (Ser10) mitotic marker, flow cytometry; assay type: cell-based, human
# In short: as §3
smiles,measurement,setting,value
Cc1ccc(C(=O)Nc2ccc(S(=O)(=O)O)c3cc(S(=O)(=O)O)cc(S(=O)(=O)O)c23)cc1NC(=O)c1cccc(NC(=O)Nc2cccc(C(=O)Nc3cc(C(=O)Nc4ccc(S(=O)(=O)O)c5cc(S(=O)(=O)O)cc(S(=O)(=O)O)c45)ccc3C)c2)c1 [suramine],endothelial cell tube formation (in words),HUVEC cells,prevented endothelial cell tube formation
"COc1cc2c(c(OC)c1OC)-c1ccc(OC)c(=O)cc1[C@@H](NC(C)=O)CC2 [Colchicine, reference compound]",IC50,U2OS (osteosarcoma),28 ± 14 nM
same,endothelial cell tube formation (in words),HUVEC cells,prevented endothelial cell tube formation
same,IC50,[1],47 ± 28 nM
same,IC50 at 72 h,"[2]; MTS assay, 72-h incubation, mean ± SD of 3 independent experiments, read-out: IC50 cytotoxic activity BJ",> 50000 nM
same,microtubule organisation in mitotic cells (in words),U2OS cells,complete absence of the spindle with diffuse tubulin signal
same,IC50,[3],1020 ± 210 nM
same,IC50,[4],1830 ± 190 nM
same,IC50 at 72 h,"[5]; MTS assay, 72-h incubation, mean ± SD of 3 independent experiments, read-out: IC50 cytotoxic activity MRC-5",55 ± 29 nM
same,IC50 at 72 h,"[6]; MTS assay, 72-h incubation, mean ± SD of 3 independent experiments, read-out: IC50 cytotoxic activity HUVEC",< 12.2 nM
COc1cc(CN(CCn2cc([C@]3(O)CC[C@H]4[C@@H]5CCc6cc(O)ccc6[C@H]5CC[C@@]43C)nn2)CCn2cc([C@]3(O)CC[C@H]4[C@@H]5CCc6cc(O)ccc6[C@H]5CC[C@@]43C)nn2)ccc1O [D9],Tubulin polymerisation inhibition,porcine brain tubulin [7],49.6%
C[C@]12CC[C@@H]3c4ccc(O)cc4CC[C@H]3[C@@H]1CC[C@@]2(O)c1cn(CCNCCn2cc([C@]3(O)CC[C@H]4[C@@H]5CCc6cc(O)ccc6[C@H]5CC[C@@]43C)nn2)nn1 [D3],Tubulin polymerisation inhibition,porcine brain tubulin [7],36.8%
C[C@]12CC[C@@H]3c4ccc(O)cc4CC[C@H]3[C@@H]1CC[C@@]2(O)c1cn(CCCCCn2cc([C@]3(O)CC[C@H]4[C@@H]5CCc6cc(O)ccc6[C@H]5CC[C@@]43C)nn2)nn1 [D1],Tubulin polymerisation inhibition,porcine brain tubulin [7],65.0%
C[C@]12CC[C@@H]3c4ccc(O)cc4CC[C@H]3[C@@H]1CC[C@@]2(O)c1cn(CCOCCn2cc([C@]3(O)CC[C@H]4[C@@H]5CCc6cc(O)ccc6[C@H]5CC[C@@]43C)nn2)nn1 [D2],Tubulin polymerisation inhibition,porcine brain tubulin [7],79.1%
"Cc1cc(C)c(Cn2cc([C@]3(O)CC[C@H]4[C@@H]5CCc6cc(O)ccc6[C@H]5CC[C@@]43C)nn2)cc1Cn1cc([C@]2(O)CC[C@H]3[C@@H]4CCc5cc(O)ccc5[C@H]4CC[C@@]32C)nn1 [ED9, 17,17′-[(4,6-Dimethyl-1,3-phenylene)bis(methylene-1H-1,2,3-triazole-1,4-diyl)]di[estra-1,3,5(10)-triene-3,17β-diol]]",IC50,[8],2020 ± 300 nM
same,IC50,[9],1960 ± 260 nM
same,IC50,U2OS (osteosarcoma),5260 ± 1690 nM
same,IC50,[1],> 50000 nM
same,IC50,[10],1690 ± 57 nM
same,IC50 at 72 h,[2],> 50000 nM
same,IC50,[3],> 50000 nM
same,"<G1 (sub-G1, fragmented DNA), % of positive cells","CCRF-CEM lymphoblasts [11]; 1×IC50, 24 h",3.92%
same,">G2/M (polyploidy), % of positive cells","CCRF-CEM lymphoblasts [11]; 1×IC50, 24 h",13.86%
same,"G0/G1, % of positive cells","CCRF-CEM lymphoblasts [11]; 1×IC50, 24 h",38.18%
same,"G2/M, % of positive cells","CCRF-CEM lymphoblasts [11]; 1×IC50, 24 h",23.92%
same,"S, % of positive cells","CCRF-CEM lymphoblasts [11]; 1×IC50, 24 h",37.90%
same,"<G1 (sub-G1, fragmented DNA), % of positive cells","CCRF-CEM lymphoblasts [11]; 5×IC50, 24 h",11.48%
same,">G2/M (polyploidy), % of positive cells","CCRF-CEM lymphoblasts [11]; 5×IC50, 24 h",17.77%
same,"G0/G1, % of positive cells","CCRF-CEM lymphoblasts [11]; 5×IC50, 24 h",4.31%
same,"G2/M, % of positive cells","CCRF-CEM lymphoblasts [11]; 5×IC50, 24 h",68.38%
same,"S, % of positive cells","CCRF-CEM lymphoblasts [11]; 5×IC50, 24 h",27.32%
same,inhibitory activity against tubulin polymerisation (in words),porcine brain tubulin [12],comparable or better inhibitory activity
same,"BrDU, % of positive cells","CCRF-CEM lymphoblasts [13]; 1×IC50, 24 h",46.72%
same,"BrDU, % of positive cells","CCRF-CEM lymphoblasts [13]; 5×IC50, 24 h",8.89%
same,IC50,[4],> 50000 nM
same,IC50,[14],1270 ± 120 nM
same,IC50 at 72 h,[5],3200 ± 890 nM
same,"BrU, % of positive cells","CCRF-CEM lymphoblasts [15]; 1×IC50, 24 h",23.92%
same,"BrU, % of positive cells","CCRF-CEM lymphoblasts [15]; 5×IC50, 24 h",38.94%
same,"pH3Ser10, % of positive cells","CCRF-CEM lymphoblasts [16]; 1×IC50, 24 h",8.42%
same,"pH3Ser10, % of positive cells","CCRF-CEM lymphoblasts [16]; 5×IC50, 24 h",41.35%
same,IC50 at 72 h,[6],38 ± 11 nM
